Source: ChEMBL document CHEMBL1221180, “Metabolic installation of thiols into sialic acid modulates adhesion and stem cell biology” (Nat Chem Biol, 2006)
Activity calls are given as the source filed them. No cut-off for these calls is given here.

Key:
[1] = tested on: Jurkat; test: Increase in cell surface thiol level in human Jurkat cells at 320 uM after 64 hrs by avidin-FITC staining-based FACS analysis relative to untreated control; format: functional
[2] = tested on: Jurkat; test: Increase in N-thioglycolylneuraminic acid level in human Jurkat cells at 10 uM after 2 hrs by avidin-FITC staining-based FACS analysis in presence of disulfide reducing agent TCEP relative to untreated control; format: functional
[3] = tested on: Lvec; test: Effect on human LVEC cell morphology cultured on gold-coated cover slips at 10 uM measured on day 9 post treatment by DAPI staining-based confocal microscopy; format: functional
[4] = tested on: Jurkat; test: Induction of human Jurkat cell adhesion assessed as covalent cellular attachment to BSA-coated superaldehyde glass surface at 100 uM after 48 hrs by fluorescence microscopy in absence of maleimide coating; format: functional, cell-based
[5] = tested on: Lvec; test: Increase in beta-casein expression in human LVEC cultured on gold-coated cover slips at 10 uM after 13 days by oregon green 488 phalloidin and DAPI staining; format: functional, cell-based
[6] = tested on: Jurkat; test: Increase in cell surface thiol level in human Jurkat cells at 10 uM after 64 hrs by avidin-FITC staining-based FACS analysis relative to untreated control; format: functional
[7] = tested on: Lvec; test: Increase in N-thioglycolylneuraminic acid level in human LVEC at 10 uM after 3 days by avidin-FITC staining-based FACS analysis; format: functional, cell-based
[8] = tested on: Lvec; test: Translocation of beta-casein into nucleus of human LVEC cultured on gold-coated cover slips at 10 uM after 13 days by oregon green 488 phalloidin and DAPI staining; format: functional, cell-based
[9] = tested on: Lvec; test: Increase in N-thioglycolylneuraminic acid level in human LVEC after 7 days by avidin-FITC staining-based FACS analysis relative to untreated control; format: functional, cell-based
[10] = tested on: Jurkat; test: Cytotoxicity against human Jurkat cells at 100 uM after 48 hrs; format: cell-based
[11] = Decrease in human LVEC cell proliferation at 10 uM for 3 days followed by second treatment of 50 uM on day 4 measured on day 9 by nestin immunostaining; format: cell-based; settings: 72 h
[12] = tested on: Lvec; test: Increase in N-thioglycolylneuraminic acid level in human LVEC at 10 uM after 7 days by avidin-FITC staining-based FACS analysis relative to untreated control; format: functional
[13] = tested on: Jurkat; test: Increase in cell surface thiol level in human Jurkat cells at 40 uM after 2 days by avidin-FITC staining-based FACS analysis relative to untreated control; format: functional
[14] = tested on: Jurkat; test: Increase in N-thioglycolylneuraminic acid level in human Jurkat cells at 10 uM after 2 hrs by avidin-FITC staining-based FACS analysis in absence of disulfide reducing agent TCEP relative to untreated control; format: functional
[15] = tested on: Jurkat; test: Induction of human Jurkat cell adhesion assessed as spontaneous clustering of cells at 50 uM after 2 days by inverted microscopy; format: functional, cell-based
[16] = tested on: Jurkat; test: Increase in cell surface thiol level in human Jurkat cells at 160 uM after 64 hrs by avidin-FITC staining-based FACS analysis relative to untreated control; format: functional
[17] = Induction of human LVEC cell differentiation into neural cell lineage cultured on gold-coated cover slips assessed as effect on cytoskeleton distribution at 10 uM measured on day 9 post treatment by DAPI staining-based confocal microscopy; format: functional
[18] = tested on: Lvec; test: Mild increase in beta-casein expression in human LVEC cultured on glass surface at 10 uM after 13 days by oregon green 488 phalloidin and DAPI staining; format: functional, cell-based
[19] = tested on: Jurkat; test: Induction of human Jurkat cell adhesion assessed as covalent cellular attachment to maleimide functionalized BSA-coated superaldehyde glass surface at 100 uM after 48 hrs by fluorescence microscopy; format: functional, cell-based
[20] = tested on: Jurkat; test: Modulation of cell surface thiol level in human Jurkat cells at 100 uM after 64 hrs by avidin-FITC staining-based FACS analysis; format: functional

Compound: CC(=O)N[C@@H]1C(OC(C)=O)O[C@H](COC(C)=O)[C@@H](OC(C)=O)[C@@H]1OC(C)=O (stereo partly specified)
- fold change (FC) [1]: 34

Compound: CC(=O)OC[C@H]1O[C@H](OC(C)=O)[C@@H](NC(=O)CSC(C)=O)[C@@H](OC(C)=O)[C@@H]1OC(C)=O
- fold change (FC) [2]: 120
- Activity [3]: Active
- Activity [4]: inactive
- Activity [5]: Active
- fold change (FC) [6]: 19
- Activity [7]: Active
- Activity [8]: Active
- Activity [9]: Dose-dependent effect
- Activity [10]: Non-toxic
- Activity [11]: Toxic
- fold change (FC) [12]: 15
- fold change (FC) [13]: 14
- fold change (FC) [14]: 13
- fold change (FC) [1]: 34
- Activity [15]: Active
- fold change (FC) [16]: 40
- Activity [17]: Active
- Activity [18]: Active
- Activity [19]: Active

Compound: CC(=O)CCC(=O)N[C@@H]1C(OC(C)=O)O[C@H](COC(C)=O)[C@@H](OC(C)=O)[C@@H]1OC(C)=O (stereo partly specified)
- fold change (FC) [1]: 34

Compound: CC(=O)OCC(=O)N[C@@H]1[C@@H](OC(C)=O)O[C@H](COC(C)=O)[C@@H](OC(C)=O)[C@@H]1OC(C)=O
- Activity [20]: inactive
- Activity [3]: inactive
- Activity [4]: inactive
- Activity [15]: Active
- Activity [19]: Active
